Laboratory results published in patent US8772237B2, “Compositions and methods for counteracting effects of reactive oxygen species and free radicals” (Ischemix, Inc., priority 1999, dated 2014).
Ends that are not written are not given here. * marks the point of attachment. Palmitoyl = CCCCCCCCCCCCCCCC(=O)*; Gga = not defined here

Columns and labels:
[1] = test system: Superoxide Dismutase (SOD); experiment: In vivo upregulation of SOD in rat organs (Western immunoblot); set-up: species or system Sprague-Dawley rats; settings: for SOD Activity: 6-hour treatment, 10 mg/kg i.v.
Procedure: In vivo experiments were carried out in Sprague-Dawley rats (300-325 g) with solutions of CMX-1152 or CMX-99672. The animals were injected intravenously (iv) via the tail vein with a peptide compound. […] The animals were sacrificed by decapitation at 6, 12, 24, 48, and 72 hours post injection and dissected to isolate brain, liver, heart, kidney, lung organs, which were frozen at −70° C. for subsequent analysis. In addition, 2 ml samples of whole blood were taken from each animal. Half (1 ml) of each sample was centrifuged to remove nuclei and cell membranes to yield plasma. The remaining half was stored frozen as whole blood at −70° C.
Each tissue was thawed and homogenized in a Down's homogenizer using ten volumes of homogenizer buffer (see, Adams et al., General Cellular Biochemistry, 77: 221-233 (2000); buffer as described in Adams et al., J. Leukoc. Biol., 62: 865-875 (1967)) to obtain a crude cytoplasmic fraction. The tissue homogenates were centrifuged (14,000×g for 5 minutes at 4° C.) to yield the supernatant purified cytoplasmic protein fractions as described in Adams et al. (J. Cell. Biochem., 77: 221-233 (2000)). A 10 μg sample of each protein fraction was then separated by SDS polyacrylamide gel electrophoresis (SDS-PAGE) and analyzed for SOD and CAT content by Western blot assay.
Control for measurement of unstimulated levels of SOD and CAT were obtained from two vehicle only (i.e., no peptide compound) injected rats that were sacrificed at 24 and 72 hours post injection. Both had essentially the same unstimulated levels of SOD and CAT. Standard quantities of each cytoplasmic fractions (10 μg) were loaded on a lane of a gel for electrophoretic separation and Western immunoblot analysis (Adams et al., J. Cell. Biochem., 77: 221-233 (2000)). The stained gels were photographed and scanned by laser densitometry to quantify intensities in comparison to enzyme levels for control vehicle treated rats.

[2] = test system: superoxide dismutase (SOD) protein; experiment: Western immunoblot of SOD protein in rat brain primary cortical cultures; assay type: cell-based; settings: for SOD: 5 hours at 37° C.
Procedure: Primary cortical cultures were obtained by growing newborn rat brain cortical cells in Delbecco's modified Eagle medium supplemented with 25 μg/ml of gentamycin and 10% fetal calf serum. The cells were isolated from the E-21 cortex of rat brain, plated at a density of 1×10^5 per ml and grown to confluence within four to five days in an atmosphere containing air and 5% CO2 at 37° C. as described in Cornell-Bell et al., Science, 247: 470-473 (1990) and Cell Calcium, 12: 185-204 (1991). Cultures were grown in 20 ml flasks as a monolayer and then exposed to various concentrations of peptides for studies of the effects of peptides on upregulation of genes for SOD and CAT and on the transmigration of transcription factor AP-1 to cell nuclei. […]
(§1) Tissue culture experiments were carried out using primary cultures of rat brain cortical cells as previously described above in Example 2. Primary cultures from embryonic rat brain isolated at E-21 (21 day embryos) and incubated for five hours with various doses: 1, 10, 100 ng/ml of CMX-99672. Cytoplasmic proteins were isolated and analyzed for upregulation of SOD and CAT by Western immunoblots as described above. […] The Western blot was scanned to quantify the fold-increase in SOD production in cell cultures treated with the CMX-99672 peptide compound.
Representative peptide compounds were tested at various doses and compared for their ability to upregulate expression of genes for SOD and/or CAT in rat primary cortical cultures basically as described above. Cultures were incubated with a peptide compound for 5 hours at 37° C. Cytoplasmic protein fractions were prepared as described above. Cytoplasmic proteins were separated by gel electrophoresis and analyzed by Western immunoblots using antisera to SOD and CAT, respectively (Rockland, Inc., Gilbertsville, Pa.). […]

catalase (CAT) protein = experiment: Western immunoblot of CAT protein in rat primary cortical cultures; assay type: cell-based; settings: for CAT: 5 hours at 37° C.
Procedure: as §1
Representative peptide compounds were tested at various doses and compared for their ability to upregulate expression of genes for SOD and/or CAT in rat primary cortical cultures basically as described above. Cultures were incubated with a peptide compound for 5 hours at 37° C. Cytoplasmic protein fractions were prepared as described above. Cytoplasmic proteins were separated by gel electrophoresis and analyzed by Western immunoblots using antisera to SOD and CAT, respectively (Rockland, Inc., Gilbertsville, Pa.).

[3] = test system: middle cerebral artery (MCA) permanent occlusion stroke model; experiment: Permanent MCA 24-hour occlusion stroke model; assay type: in vivo, Sprague-Dawley rats; settings: Dose 0.03 mg/hr
[4] = five hours, doses 1, 10, 100 ng/ml

Asp Gly [CMX-1152]
SOD Activity ([1]; Brain): 520 % of Control
SOD Activity ([1]; Heart): 550 % of Control
SOD Activity ([1]; Kidney): 200 % of Control
SOD Activity ([1]; Liver): 200 % of Control
SOD Activity ([1]; Lung): 520 % of Control
SOD Activity ([1]; Plasma): 420 % of Control
SOD Activity ([1]; Whole Blood): 490 % of Control
upregulation in SOD production relative to control ([1]; brain, heart, lung, and blood): four to five-fold
upregulation in SOD production relative to control ([1]; liver and kidney): approximately two-fold
SOD ([2]; Dose 6.7 pmol/ml): 2143 % Control
SOD Upregulation ([2]; Dose 1 ng/ml): 170 % Control
SOD Upregulation ([2]; Dose 10 ng/ml): 330 % Control
SOD Upregulation ([2]; Dose 100 ng/ml): 420 % Control

Asp Gly [CMX-99672]
increase in SOD [2, 4]: approximately 30 fold
increase in SOD-related protein [2, 4]: ~20 fold
upregulation of CAT (in words) (catalase (CAT) protein; [4]): Comparable data was obtained for CAT

KKQTLQFR
SOD ([2]; Dose 95 pmol/ml): 350 % Control
CAT (catalase (CAT) protein; Dose 95 pmol/ml): 400 % Control

[Ac] Asp Gly Asp Gly Phe Ala (Ac-DGDGFA) [CMX-99655]
SOD ([2]; Dose 8 pmol/ml): 750 % Control
CAT (catalase (CAT) protein; Dose 8 pmol/ml): 520 % Control

[Ac] Thr Val Ser [CMX-99647]
SOD ([2]; Dose 6.7 pmol/ml): 2066 % Control

[DHA]-Lys Lys Asp Gly Asp Gly Asp Phe Ala Ile Asp Ala Pro Glu [CMX-9236D]
Percent Neurological Rescue [3]: 50 ± 18%
Percent Rescue (percent decrease in infarct size vs vehicle controls) [3]: 48 ± 12%

[Gga] Asp Gly Asp Gly Phe Ala (Gga-DGDGFA; not fully specified; printed as [Gga] Asp Gly Asp Gly Phe Ala; reading uncertain) [CMX-99661]
SOD ([2]; Dose 6.7 pmol/ml): 463 % Control

[Palm] Asp Gly Asp Gly Phe Ala (Palmitoyl-DGDGFA) [CMX-9960]
SOD ([2]; Dose 6.7 pmol/ml): 527 % Control
